Reference: ChEMBL document CHEMBL6096690, “Synthesis and Biological Evaluation of Peripheral HTR2A Antagonists for Colorectal Cancer” (J Med Chem, 2025)
The source made the active and inactive calls. The rule behind the calls is not given here.

Legend:
HCT-116 [1] = assay: Antitumor activity against human HCT-116 cells expressing firefly luciferase xenografted in male athymic nude BALB/c mouse assessed as decrease in bioluminescent signals at 50 mg/kg, ip administered once daily by bioluminescence imaging analysis; assay type: functional, organism-based
[2] = molecular target: 5-hydroxytryptamine receptor 6 (Homo sapiens) (UniProt P50406); assay: Inhibition of 5HTR6 (unknown origin) at 1 uM relative to control
SW-620 [3] = assay: Antitumor activity against human SW620 cells xenografted in male athymic nude BALB/c mouse assessed as tumor growth inhibition at 50 mg/kg, ip administered once daily relative to control; assay type: functional; conditions: read-out: TGI
[4] = molecular target: T1, 5-hydroxytryptamine receptor 2B (Homo sapiens, UniProt P41595); assay: Inhibition of 5HTR2B (unknown origin)
[5] = Drug concentration in male ICR mouse brain at 10 mg/kg, ip measured after 1 hr; assay type: ADME, organism-based; conditions: read-out: Ct
CYP2C9 = CYP2C9 (Homo sapiens, UniProt P11712); assay: Inhibition of CYP2C9 (unknown origin) at 10 uM relative to control; assay type: ADME
[6] = Volume of distribution at steady state in male mouse at 2 mg/kg, iv; assay type: ADME, organism-based; conditions: in vivo, read-out: Vdss
HCT-116 [7] = assay: Induction of cell cycle arrest in human HCT-116 cells assessed as increase in sub-G1 phase cells incubated for 24 hrs by PI/RNase staining based flow cytometric analysis; assay type: functional; conditions: dose 5-10 µM
HCT-116 [8] = assay: Antitumor activity against human HCT-116 cells expressing firefly luciferase xenografted in male athymic nude BALB/c mouse assessed as tumor growth inhibition at 50 mg/kg, ip administered once daily by bioluminescence imaging analysis relative to control; assay type: functional; conditions: read-out: TGI
SW-620 [9] = assay: Antitumor activity against human SW620 cells xenografted in male athymic nude BALB/c mouse assessed as tumor growth inhibition at 10 mg/kg, ip administered once daily relative to control; assay type: functional; conditions: read-out: TGI
HCT-116 [10] = assay: Antiproliferative activity against human HCT-116 cells assessed as inhibition of cell proliferation incubated for 24 to 48 hrs by CCK-8 assay; assay type: functional, cell-based; conditions: dose 1.5-12.5 µM, time 24-48 hrs
[11] = molecular target: 5-hydroxytryptamine receptor 7 (Homo sapiens) (UniProt P34969); assay: Inhibition of 5HTR7 (unknown origin) at 1 uM relative to control
HCT-116 [12] = assay: Antitumor activity against human HCT-116 cells xenografted in male athymic nude BALB/c mouse assessed as tumor growth inhibition at 10 mg/kg, ip measured after 19 days relative to control; assay type: functional; conditions: HCT-116, 456 h, time 19 day, read-out: TGI
RKO [13] = assay: Antiproliferative activity against human RKO cells assessed as inhibition of cell proliferation at 1.5 to 12.5 uM by CCK-8 assay; assay type: functional, cell-based; conditions: dose 1.5-12.5 µM, time 24-48 hrs
CCD-18Co [14] = assay: Cytotoxicity against human CCD-18Co cells assessed as inhibition of cell proliferation at 1.5 to 12.5 uM by CCK-8 assay; assay type: toxicity, cell-based; conditions: dose lower 1.5 µM, time lower 24 hrs, dose upper 12.5 µM, time upper 48 hrs
CYP2C19 = CYP2C19 (Homo sapiens, UniProt P33261); assay: Inhibition of CYP2C19 (unknown origin) at 10 uM relative to control; assay type: ADME
HCT-116 [15] = assay: Induction of apoptosis in human HCT-116 cells assessed as increase in cleaved PARP expression incubated for 24 hrs by Western blotting analysis; assay type: functional, cell-based; conditions: dose 5-10 µM
CCD-18Co [16] = assay: Cytotoxicity against human CCD-18Co cells assessed as inhibition of cell proliferation incubated for 24 to 48 hrs by CCK-8 assay; assay type: toxicity, cell-based; conditions: dose lower 1.5 µM, time lower 24 hrs, dose upper 12.5 µM, time upper 48 hrs
[17] = Microsomal stability in rat liver microsomes assessed as parent compound remaining measured after 30 mins; assay type: ADME, Microsome; conditions: read-out: Stability
[18] = Microsomal stability in mouse liver microsomes assessed as parent compound remaining measured after 30 mins; assay type: ADME, Microsome; conditions: read-out: Stability
[19] = molecular target: T1, 5-hydroxytryptamine receptor 2B; assay: Inhibition of 5HTR2B (unknown origin) at 1 uM relative to control
[20] = Toxicity in male athymic nude BALB/c mouse xenografted with human HCT-116 cells assessed as change in body weight at 1 to 10 mg/kg, ip administered once daily and measured after 19 days; assay type: organism-based; conditions: in vivo, 456 h, dose 1-10 mg/kg, time 19 day
SW-620 [21] = assay: Antitumor activity against human SW620 cells xenografted in male athymic nude BALB/c mouse assessed as tumor growth inhibition administered intraperitoneally once daily relative to control; assay type: functional; conditions: dose 10-50 mg/kg, route ip
HCT-116 [22] = assay: Antiproliferative activity against human HCT-116 cells assessed as inhibition of cell proliferation at 1.5 to 12.5 uM by CCK-8 assay; assay type: functional, cell-based; conditions: dose 1.5-12.5 µM, time […]
RKO [23] = assay: Antiproliferative activity against human RKO cells assessed as inhibition of cell proliferation incubated for 24 to 48 hrs by CCK-8 assay; assay type: functional, cell-based; conditions: dose 1.5-12.5 µM, time 24-48 hrs
[24] = Half life in male mouse at 2 mg/kg, iv; assay type: ADME, organism-based; conditions: in vivo
SW-620 [25] = assay: Induction of cell cycle arrest in human SW620 cells assessed as increase in sub-G1 phase cells incubated for 24 hrs by PI/RNase staining based flow cytometric analysis; assay type: functional; conditions: dose 5-10 µM
SW480 [26] = assay: Antiproliferative activity against human SW480 cells assessed as inhibition of cell proliferation at 1.5 to 12.5 uM by CCK-8 assay; assay type: functional, cell-based; conditions: dose 1.5-12.5 µM, time 24-48 hrs
SW480 [27] = assay: Antiproliferative activity against human SW480 cells assessed as inhibition of cell proliferation incubated for 24 to 48 hrs by CCK-8 assay; assay type: functional, cell-based; conditions: dose 1.5-12.5 µM, time 24-48 hrs
hERG (KCNH2) = hERG (KCNH2) (Homo sapiens, UniProt Q12809); assay: Inhibition of hERG at 10 uM relative to control; assay type: toxicity
SW-620 [28] = assay: Antiproliferative activity against human SW620 cells assessed as inhibition of cell proliferation incubated for 24 to 48 hrs by CCK-8 assay; assay type: functional, cell-based; conditions: dose 1.5-12.5 µM, time 24-48 hrs
[29] = molecular target: 5-hydroxytryptamine receptor 2A (Homo sapiens, UniProt P28223); assay: Antagonist activity at 5HTR2A (unknown origin) assessed as inhibition of 5-HTR2A
CYP3A4 = CYP3A4 (Homo sapiens, UniProt P08684); assay: Inhibition of CYP3A4 (unknown origin) at 10 uM relative to control; assay type: ADME
HCT-116 [30] = assay: Induction of apoptosis in human HCT-116 cells assessed as increase in apoptotic cells at 5 to 10 uM incubated for 24 hrs by Annexin V/propidium iodide staining based FACS assay; assay type: functional, cell-based; conditions: dose 5-10 µM
[31] = molecular target: 5-hydroxytryptamine receptor 5A (Homo sapiens) (UniProt P47898); assay: Inhibition of 5HTR5A (unknown origin) at 1 uM relative to control
SW-620 [32] = assay: Induction of apoptosis in human SW620 cells assessed as increase in cleaved PARP expression incubated for 24 hrs by Western blotting analysis; assay type: functional, cell-based; conditions: dose 5-10 µM
SW-620 [33] = assay: Induction of apoptosis in human SW620 cells assessed as increase in cleaved caspase 3 expression incubated for 24 hrs by Western blotting analysis; assay type: functional, cell-based; conditions: dose 5-10 µM
HCT-116 [34] = assay: Induction of apoptosis in human HCT-116 cells assessed as increase in cleaved caspase 3 expression incubated for 24 hrs by Western blotting analysis; assay type: functional, cell-based; conditions: dose 5-10 µM
SW-620 [35] = assay: Antiproliferative activity against human SW620 cells assessed as inhibition of cell proliferation at 1.5 to 12.5 uM by CCK-8 assay; assay type: functional, cell-based; conditions: dose 1.5-12.5 µM, time 24-48 hrs
HCT-116 [36] = assay: Induction of cell cycle arrest at sub-G1 phase in human HCT-116 cells assessed as increase in p21 protein expression at 5 to 10 uM incubated for 24 hrs by Western blotting analysis; assay type: functional, cell-based; conditions: dose 5-10 µM

T1 sequence (P41595 whole entry): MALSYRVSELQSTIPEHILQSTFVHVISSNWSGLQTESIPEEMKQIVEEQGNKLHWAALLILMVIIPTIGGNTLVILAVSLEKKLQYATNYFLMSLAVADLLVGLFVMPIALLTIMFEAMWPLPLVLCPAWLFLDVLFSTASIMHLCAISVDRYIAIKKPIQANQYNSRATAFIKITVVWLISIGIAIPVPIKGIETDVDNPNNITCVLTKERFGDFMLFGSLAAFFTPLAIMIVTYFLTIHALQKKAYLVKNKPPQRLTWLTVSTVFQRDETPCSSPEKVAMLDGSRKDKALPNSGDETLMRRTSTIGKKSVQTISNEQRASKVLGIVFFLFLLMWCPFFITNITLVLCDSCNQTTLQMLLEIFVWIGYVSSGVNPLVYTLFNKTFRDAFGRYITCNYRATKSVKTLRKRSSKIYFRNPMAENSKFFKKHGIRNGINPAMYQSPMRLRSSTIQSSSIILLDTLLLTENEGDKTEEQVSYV
Sequence of 5-hydroxytryptamine receptor 7 (Homo sapiens) (P34969 whole entry): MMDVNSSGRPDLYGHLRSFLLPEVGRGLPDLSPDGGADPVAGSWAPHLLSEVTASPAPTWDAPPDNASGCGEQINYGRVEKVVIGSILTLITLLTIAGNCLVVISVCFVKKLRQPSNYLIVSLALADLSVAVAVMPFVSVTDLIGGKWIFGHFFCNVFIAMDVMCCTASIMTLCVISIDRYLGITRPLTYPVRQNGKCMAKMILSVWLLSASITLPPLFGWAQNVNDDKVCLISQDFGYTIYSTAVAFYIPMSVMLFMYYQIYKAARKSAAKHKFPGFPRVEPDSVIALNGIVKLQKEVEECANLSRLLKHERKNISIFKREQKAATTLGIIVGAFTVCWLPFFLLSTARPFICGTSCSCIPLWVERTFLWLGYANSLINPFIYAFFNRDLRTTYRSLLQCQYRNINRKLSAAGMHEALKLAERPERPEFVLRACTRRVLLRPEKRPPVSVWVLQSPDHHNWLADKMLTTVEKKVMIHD
Sequence of hERG (KCNH2) (Q12809 whole entry): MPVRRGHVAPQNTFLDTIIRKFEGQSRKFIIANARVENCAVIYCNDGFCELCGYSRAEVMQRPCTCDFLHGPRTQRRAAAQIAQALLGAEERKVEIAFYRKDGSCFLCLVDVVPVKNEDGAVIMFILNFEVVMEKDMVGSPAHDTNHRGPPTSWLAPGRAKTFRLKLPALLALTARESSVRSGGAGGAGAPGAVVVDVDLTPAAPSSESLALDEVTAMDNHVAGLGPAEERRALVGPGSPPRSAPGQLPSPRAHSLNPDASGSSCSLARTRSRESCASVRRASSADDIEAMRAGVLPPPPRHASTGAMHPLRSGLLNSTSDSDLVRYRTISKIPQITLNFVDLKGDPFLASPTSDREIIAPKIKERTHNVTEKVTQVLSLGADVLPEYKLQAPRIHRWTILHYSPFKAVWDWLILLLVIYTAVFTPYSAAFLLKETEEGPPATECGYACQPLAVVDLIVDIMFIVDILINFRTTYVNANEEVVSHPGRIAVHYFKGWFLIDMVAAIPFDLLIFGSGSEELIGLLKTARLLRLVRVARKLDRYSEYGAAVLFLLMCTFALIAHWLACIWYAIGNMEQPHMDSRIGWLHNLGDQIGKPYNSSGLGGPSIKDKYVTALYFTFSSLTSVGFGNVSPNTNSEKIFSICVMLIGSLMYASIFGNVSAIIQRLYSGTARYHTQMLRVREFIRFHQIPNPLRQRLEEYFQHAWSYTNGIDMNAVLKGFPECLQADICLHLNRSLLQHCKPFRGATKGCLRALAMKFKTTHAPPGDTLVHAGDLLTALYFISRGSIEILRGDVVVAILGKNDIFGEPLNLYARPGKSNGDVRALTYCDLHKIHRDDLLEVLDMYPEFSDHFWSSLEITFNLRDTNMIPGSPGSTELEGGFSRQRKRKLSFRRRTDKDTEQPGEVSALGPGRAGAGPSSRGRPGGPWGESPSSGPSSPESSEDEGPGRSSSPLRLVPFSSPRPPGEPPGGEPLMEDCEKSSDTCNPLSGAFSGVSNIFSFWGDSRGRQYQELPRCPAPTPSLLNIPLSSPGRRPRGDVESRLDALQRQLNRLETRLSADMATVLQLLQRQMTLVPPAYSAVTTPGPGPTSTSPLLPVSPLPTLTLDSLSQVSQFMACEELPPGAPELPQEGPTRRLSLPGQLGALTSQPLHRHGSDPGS
Sequence of CYP3A4 (P08684 whole entry): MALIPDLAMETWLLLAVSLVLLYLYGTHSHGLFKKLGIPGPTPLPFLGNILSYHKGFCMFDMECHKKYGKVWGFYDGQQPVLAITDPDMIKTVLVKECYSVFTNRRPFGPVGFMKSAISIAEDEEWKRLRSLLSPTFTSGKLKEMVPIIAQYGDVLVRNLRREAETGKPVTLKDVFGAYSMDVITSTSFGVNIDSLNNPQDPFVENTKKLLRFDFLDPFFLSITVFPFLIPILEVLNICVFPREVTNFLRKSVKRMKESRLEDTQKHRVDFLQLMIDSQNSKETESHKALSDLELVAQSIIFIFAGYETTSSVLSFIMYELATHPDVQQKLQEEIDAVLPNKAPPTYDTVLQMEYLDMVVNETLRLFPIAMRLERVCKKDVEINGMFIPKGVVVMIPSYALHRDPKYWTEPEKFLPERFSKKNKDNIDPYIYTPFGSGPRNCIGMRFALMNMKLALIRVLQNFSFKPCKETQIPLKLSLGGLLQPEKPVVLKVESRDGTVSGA
Sequence of CYP2C9 (P11712 whole entry): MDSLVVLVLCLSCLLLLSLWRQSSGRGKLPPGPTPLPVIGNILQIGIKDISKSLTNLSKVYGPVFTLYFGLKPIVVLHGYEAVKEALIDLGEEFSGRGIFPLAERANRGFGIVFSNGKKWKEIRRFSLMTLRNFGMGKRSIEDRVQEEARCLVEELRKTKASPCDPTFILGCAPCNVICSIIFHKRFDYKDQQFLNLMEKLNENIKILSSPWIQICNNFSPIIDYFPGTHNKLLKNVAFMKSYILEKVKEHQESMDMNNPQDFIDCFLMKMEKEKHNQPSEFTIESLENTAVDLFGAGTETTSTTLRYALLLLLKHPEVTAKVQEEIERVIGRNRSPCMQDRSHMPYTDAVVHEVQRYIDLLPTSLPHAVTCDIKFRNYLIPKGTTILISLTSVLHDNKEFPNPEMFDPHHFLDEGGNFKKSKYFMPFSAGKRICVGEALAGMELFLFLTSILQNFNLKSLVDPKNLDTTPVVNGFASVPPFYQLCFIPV
Sequence of 5-hydroxytryptamine receptor 5A (Homo sapiens) (P47898 whole entry): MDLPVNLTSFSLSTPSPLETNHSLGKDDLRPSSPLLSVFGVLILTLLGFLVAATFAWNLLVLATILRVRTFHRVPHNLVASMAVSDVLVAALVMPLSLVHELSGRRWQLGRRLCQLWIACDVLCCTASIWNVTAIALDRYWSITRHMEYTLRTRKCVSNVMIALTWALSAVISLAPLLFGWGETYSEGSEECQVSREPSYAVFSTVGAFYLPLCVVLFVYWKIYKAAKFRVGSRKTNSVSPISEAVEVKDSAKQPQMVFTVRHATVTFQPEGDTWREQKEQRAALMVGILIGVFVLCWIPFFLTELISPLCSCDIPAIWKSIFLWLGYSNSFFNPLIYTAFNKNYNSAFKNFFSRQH
Sequence of 5-hydroxytryptamine receptor 6 (Homo sapiens) (P50406 whole entry): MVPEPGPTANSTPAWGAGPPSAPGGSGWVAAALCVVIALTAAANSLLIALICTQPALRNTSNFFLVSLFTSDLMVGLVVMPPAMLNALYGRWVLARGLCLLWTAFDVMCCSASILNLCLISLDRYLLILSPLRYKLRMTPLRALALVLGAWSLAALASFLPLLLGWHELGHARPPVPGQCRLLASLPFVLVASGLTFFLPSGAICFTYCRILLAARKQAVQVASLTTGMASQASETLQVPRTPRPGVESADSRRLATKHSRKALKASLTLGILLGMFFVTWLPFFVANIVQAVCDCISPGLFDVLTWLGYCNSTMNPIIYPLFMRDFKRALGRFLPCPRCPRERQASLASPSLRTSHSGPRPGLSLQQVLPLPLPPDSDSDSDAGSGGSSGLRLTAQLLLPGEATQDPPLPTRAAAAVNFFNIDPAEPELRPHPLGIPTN
Sequence of CYP2C19 (P33261 whole entry): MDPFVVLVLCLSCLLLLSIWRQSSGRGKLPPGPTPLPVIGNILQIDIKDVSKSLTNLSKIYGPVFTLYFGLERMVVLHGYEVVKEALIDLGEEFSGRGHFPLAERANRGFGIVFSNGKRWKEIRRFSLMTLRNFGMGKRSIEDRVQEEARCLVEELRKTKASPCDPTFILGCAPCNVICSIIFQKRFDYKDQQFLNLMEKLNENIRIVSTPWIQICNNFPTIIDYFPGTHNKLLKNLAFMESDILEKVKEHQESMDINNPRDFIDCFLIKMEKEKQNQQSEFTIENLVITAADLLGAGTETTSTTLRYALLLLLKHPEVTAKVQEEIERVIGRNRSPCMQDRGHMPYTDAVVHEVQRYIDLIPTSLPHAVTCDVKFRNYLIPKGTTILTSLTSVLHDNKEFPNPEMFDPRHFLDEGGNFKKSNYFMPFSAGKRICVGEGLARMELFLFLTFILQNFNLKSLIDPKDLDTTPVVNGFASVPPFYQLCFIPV
Sequence of 5-hydroxytryptamine receptor 2A (P28223 whole entry): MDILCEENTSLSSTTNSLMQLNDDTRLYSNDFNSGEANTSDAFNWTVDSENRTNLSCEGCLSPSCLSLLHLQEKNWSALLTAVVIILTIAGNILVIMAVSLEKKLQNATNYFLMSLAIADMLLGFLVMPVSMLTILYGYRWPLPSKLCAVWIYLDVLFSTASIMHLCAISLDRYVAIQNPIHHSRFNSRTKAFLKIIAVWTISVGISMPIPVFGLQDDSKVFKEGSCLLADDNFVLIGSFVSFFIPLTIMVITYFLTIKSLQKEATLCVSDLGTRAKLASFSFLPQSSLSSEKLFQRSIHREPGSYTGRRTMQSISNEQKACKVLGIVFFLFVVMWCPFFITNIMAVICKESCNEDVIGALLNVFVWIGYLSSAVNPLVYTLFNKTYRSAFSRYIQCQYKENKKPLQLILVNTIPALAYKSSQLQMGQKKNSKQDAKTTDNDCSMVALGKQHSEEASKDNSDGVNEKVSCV

## Cl.Cl.O=C(NCc1ccc(OCC(O)CN2CCN(c3noc4cc(F)ccc34)CC2)cc1)N(Cc1ccc(F)cc1)C1CCNCC1 (stereo not given)
HCT-116 [1]
  Activity: Active
[2]
  inhibition: -5%
SW-620 [3]
  inhibition in vivo at 50 mg/kg: 46.9%
[4]
  IC50: 621 nM
[5]
  concentration at 1 h: < 0.5 ng/g
CYP2C9
  inhibition at 10 µM: 5%
[6]
  Vd: 83.9 L/kg
HCT-116 [7]
  Activity: Dose-dependent-effect
HCT-116 [8]
  inhibition in vivo at 50 mg/kg: 76.5%
SW-620 [9]
  inhibition in vivo at 10 mg/kg: 30.8%
HCT-116 [10]
  Activity: Dose-dependent-effect
[11]
  inhibition: 102%
HCT-116 [12]
  inhibition in vivo at 10 mg/kg: 53.3%
RKO [13]
  Activity: Time-dependent-effect
CCD-18Co [14]
  Activity: Time-dependent-effect
CYP2C19
  inhibition at 10 µM: 21%
HCT-116 [15]
  Activity: Dose-dependent-effect
CCD-18Co [16]
  Activity: Dose-dependent-effect
[17]
  remaining at 0.5 h: 95.3%
[18]
  remaining at 0.5 h: > 99%
[19]
  inhibition: 84.8%
[20]
  Activity: Non-toxic
SW-620 [21]
  Activity: Dose-dependent-effect
HCT-116 [22]
  Activity: Time-dependent-effect
RKO [23]
  Activity: Dose-dependent-effect
[24]
  half-life: 13.9 h
SW-620 [25]
  Activity: Dose-dependent-effect
SW480 [26]
  Activity: Time-dependent-effect
SW480 [27]
  Activity: Dose-dependent-effect
hERG (KCNH2)
  inhibition at 10 µM: 52%
SW-620 [28]
  Activity: Dose-dependent-effect
[29]
  IC50: 42.8 nM
CYP3A4
  inhibition at 10 µM: 9.6%
HCT-116 [30]
  Activity: Active
[31]
  inhibition: 10%
SW-620 [32]
  Activity: Dose-dependent-effect
SW-620 [33]
  Activity: Dose-dependent-effect
HCT-116 [34]
  Activity: Dose-dependent-effect
SW-620 [35]
  Activity: Time-dependent-effect
HCT-116 [36]
  Activity: Active
